The values that follow come from patent publication US20120164756A1, “ASPIRIN ASSAY” (RANDOX LABORATORIES LIMITED, priority 2009, published 2012).

For data set [1] the following is noted: cited from earlier work; for share of excreted product: excretion after aspirin ingestion; for kinetics of formation: hepatic metabolism of salicylic acid.
Data set [2] relates to antibodies raised from SUA-BTG. The data set is described as follows: Biochip-based competitive immunoassay (salicyluric acid dose-response curve and cross-reactivity profile). The format is binding, sheep. To be noted: Concentration 350 μg/ml. As to the method: In order to generate polyclonal antisera, the immunogen (prepared in Example 2) was mixed with primary complete Freund's Adjuvant (Sigma) and injected into a host sheep to provide target-specific polyclonal antisera. On a monthly basis the immunogen (with incomplete Freund's Adjuvant) was injected into the sheep. The host animal was bled to yield a suitable volume of specific antiserum. IgG was then extracted from the antisera via Caprylic acid/ammonium sulphate precipitation of immunoglobulin.
Nine calibrator solutions of salicyluric acid (0-5.00 μg/ml) were prepared in calibrator buffer for standard curves. Cross-reactants (aspirin, 4-aminosalcylic acid, benzoic acid, diflusinal, gentisic acid, gentisuric acid, ibuprofen, methyl salicylate, salicylic acid and salsalate) were diluted in calibrator buffer (0-350 μg/ml). Assay diluent (155 μl), sample/antigen (25 μl), and diluted conjugate (Hapten 1-HRP 120 μl) were added to biochips wells. Biochips were incubated for 30 min at 30° C. in a thermoshaker at 370 rpm, and then washed with TBST buffer (2 quick washes followed by 4 washes with 2 min intervals). Biochips were developed with 250 μl luminol plus: peroxide (1:1) for 2 min in the dark, and were then imaged on the Randox Investigator (2×60 sec images).

The conditions of data set [3]: cited from earlier work.
[4] abbreviates: after ingestion of a therapeutic amount of aspirin.

Take `O=C(O[C@@H]1O[C@H](C(=O)O)[C@@H](O)[C@H](O)[C@H]1O)c1ccccc1O` [salicylacyl glucuronide]: in data set [1], the “share of excreted product” value was “approximately 5%” and the kinetics of formation result is listed as “first-order kinetics”.

For the compound `O=C(O)CNC(=O)c1cc(O)ccc1O` [Gentisuric acid], in data set [2], the “% Cross-reactivity” value is <<1.00%.

Regarding `O=C(O)CNC(=O)c1ccccc1` [Hippuric acid], in data set [2], the “% Cross-reactivity” value is <<1.00%.

On to `O=C(O)c1cc(O)ccc1O` [Gentisic acid], for which the “% Cross-reactivity” value in data set [2] is <<1.00%. Also, in data set [1], the “share of excreted product” value is reported as “approximately 1%” and the kinetics of formation entry is listed as “first-order kinetics”.

On to `O=C(O)CNC(=O)c1ccccc1O` [Salicyluric acid, salicyluric acid], for which, in data set [1], the “share of excreted product” value is on record as “approximately 75%” and the kinetics of formation result is on record as “Michaelis-Menten or zero-order kinetics”.

On to `CC(=O)Oc1ccccc1C(=O)O` [Aspirin, 2-acetoxybenzoic acid], for which the “% Cross-reactivity” value in data set [2] is listed as <<1.00%. The “moderately toxic concentration (MTC), aspirin equivalent” value in data set [3] (Chyka et al (2007)) is reported as 6.5 g. Also, the “toxic concentration, aspirin ingestion” value in data set [3] (general literature) is over 300 mg/kg. For the same compound, in data set [3] (serum), the “concentrations considered to be toxic” value is “exceeding 300 mg/l” and the “therapeutic concentration range in serum” value was 150 to 300 mg/L. Also, the “time until only trace levels remain” value in data set [1] (setting [4]) is at most 2 h.

For the compound `COC(=O)c1ccccc1O` [Methyl salicylate], the “% Cross-reactivity” value in data set [2] was <<1.00%.

Take `CC(C)Cc1ccc(C(C)C(=O)O)cc1` (stereo not drawn) [Ibuprofen]: the “% Cross-reactivity” value in data set [2] was <<1.00%.

Regarding `O=C(O)c1ccccc1O[C@@H]1O[C@H](C(=O)O)[C@@H](O)[C@H](O)[C@H]1O` [salicylphenolic glucuronide], in data set [1], the “share of excreted product” value is given as “approximately 8%” and the kinetics of formation entry is “Michaelis-Menten or zero-order kinetics”.

For the compound `O=C(O)c1ccccc1O` [Salicylic acid, salicylic acid], in data set [2], the “% Cross-reactivity” value is reported as <<1.00%. Also, the “therapeutic level in blood” value in data set [3] (blood of a healthy adult) was 150 to 300 mg/L. Besides, the “time of peak levels” value in data set [1] (setting [4]) is 1 to 2 h. Besides, the “share of excreted product” value in data set [1] is reported as “approximately 10%”. In addition, the half-life result in data set [1] (in serum) is recorded as “approximately 6 hours”.

As for `O=C(O)c1ccccc1` [Benzoic acid], in data set [2], the “% Cross-reactivity” value was <<1.00%.

As for `O=C(O)c1cc(-c2ccc(F)cc2F)ccc1O` [Diflusinal], in data set [2], the “% Cross-reactivity” value was <<1.00%.

On to `Nc1ccc(C(=O)O)c(O)c1` [4-aminosalicylic acid], for which the “% Cross-reactivity” value in data set [2] was <<1.00%.
